{
  "source": "ChEMBL document CHEMBL4819125",
  "about": "“Synthesis and anti-proliferation activity of mogrol derivatives bearing quinoline and triazole moieties” (Bioorg Med Chem Lett, 2021)",
  "key": {"NCI-H460": {"test_system": "NCI-H460", "assay": "Antiproliferative activity against human NCI-H460 cells assessed as reduction in cell growth at 30 uM by CCK8 assay relative to control", "type": "functional"}, "A549 [1]": {"test_system": "A549", "assay": "Induction of cell cycle arrest in human A549 cells assessed as G2/M phase at 7.5 uM incubated for 72 hrs by PI staining based flow cytometry analysis (reference value: 14.78 %)", "type": "functional"}, "A549 [2]": {"test_system": "A549", "assay": "Antiproliferative activity against human A549 cells assessed as reduction in cell growth by CCK8 assay", "type": "functional, cell-based"}, "A549 [3]": {"test_system": "A549", "assay": "Induction of apoptosis in human A549 cells assessed as viable cells at 3.75 uM incubated for 72 hrs by annexin V-FITC and PI staining based flow cytometry analysis (reference value: 95.98 %)", "type": "functional", "settings": "read-out: Activity"}, "A549 [4]": {"test_system": "A549", "assay": "Induction of cell cycle arrest in human A549 cells assessed as G0/G1 phase at 3.75 uM incubated for 72 hrs by PI staining based flow cytometry analysis (reference value: 53.87 %)", "type": "functional"}, "A549 [5]": {"test_system": "A549", "assay": "Induction of apoptosis in human A549 cells assessed as early apoptotic cells at 3.75 uM incubated for 72 hrs by annexin V-FITC and PI staining based flow cytometry analysis (reference value: 2.25 %)", "type": "functional"}, "A549 [6]": {"test_system": "A549", "assay": "Induction of apoptosis in human A549 cells assessed as necrotic cells at 7.5 uM incubated for 72 hrs by annexin V-FITC and PI staining based flow cytometry analysis (reference value: 1.27 %)", "type": "functional"}, "A549 [7]": {"test_system": "A549", "assay": "Induction of apoptosis in human A549 cells assessed as late apoptotic cells at 15 uM incubated for 72 hrs by annexin V-FITC and PI staining based flow cytometry analysis (reference value: 0.5 %)", "type": "functional"}, "A549 [8]": {"test_system": "A549", "assay": "Induction of apoptosis in human A549 cells assessed as early apoptotic cells at 7.5 uM incubated for 72 hrs by annexin V-FITC and PI staining based flow cytometry analysis (reference value: 2.25 %)", "type": "functional"}, "A549 [9]": {"test_system": "A549", "assay": "Induction of cell cycle arrest in human A549 cells assessed as S phase at 3.75 uM incubated for 72 hrs by PI staining based flow cytometry analysis (reference value: 31.35 %)", "type": "functional"}, "A549 [10]": {"test_system": "A549", "assay": "Induction of cell cycle arrest in human A549 cells assessed as S phase at 15 uM incubated for 72 hrs by PI staining based flow cytometry analysis (reference value: 31.35 %)", "type": "functional"}, "A549 [11]": {"test_system": "A549", "assay": "Induction of apoptosis in human A549 cells assessed as early apoptotic cells at 15 uM incubated for 72 hrs by annexin V-FITC and PI staining based flow cytometry analysis (reference value: 2.25 %)", "type": "functional"}, "A549 [12]": {"test_system": "A549", "assay": "Induction of apoptosis in human A549 cells assessed as necrotic cells at 15 uM incubated for 72 hrs by annexin V-FITC and PI staining based flow cytometry analysis (reference value: 1.27 %)", "type": "functional"}, "A549 [13]": {"test_system": "A549", "assay": "Induction of cell cycle arrest in human A549 cells assessed as G0/G1 phase at 7.5 uM incubated for 72 hrs by PI staining based flow cytometry analysis (reference value: 53.87 %)", "type": "functional"}, "A549 [14]": {"test_system": "A549", "assay": "Induction of apoptosis in human A549 cells assessed as viable cells at 15 uM incubated for 72 hrs by annexin V-FITC and PI staining based flow cytometry analysis (reference value: 95.98 %)", "type": "functional", "settings": "read-out: Activity"}, "A549 [15]": {"test_system": "A549", "assay": "Induction of cell cycle arrest in human A549 cells assessed as G2/M phase at 3.75 uM incubated for 72 hrs by PI staining based flow cytometry analysis (reference value: 14.78 %)", "type": "functional"}, "A549 [16]": {"test_system": "A549", "assay": "Induction of apoptosis in human A549 cells assessed as early apoptotic cells incubated for 72 hrs by annexin V-FITC and PI staining based flow cytometry analysis", "type": "functional, cell-based", "settings": "dose 3.75-15 µM"}, "[17]": {"target": "Signal transducer and activator of transcription 3 (Homo sapiens) (UniProt P40763)", "sequence (P40763 whole entry)": "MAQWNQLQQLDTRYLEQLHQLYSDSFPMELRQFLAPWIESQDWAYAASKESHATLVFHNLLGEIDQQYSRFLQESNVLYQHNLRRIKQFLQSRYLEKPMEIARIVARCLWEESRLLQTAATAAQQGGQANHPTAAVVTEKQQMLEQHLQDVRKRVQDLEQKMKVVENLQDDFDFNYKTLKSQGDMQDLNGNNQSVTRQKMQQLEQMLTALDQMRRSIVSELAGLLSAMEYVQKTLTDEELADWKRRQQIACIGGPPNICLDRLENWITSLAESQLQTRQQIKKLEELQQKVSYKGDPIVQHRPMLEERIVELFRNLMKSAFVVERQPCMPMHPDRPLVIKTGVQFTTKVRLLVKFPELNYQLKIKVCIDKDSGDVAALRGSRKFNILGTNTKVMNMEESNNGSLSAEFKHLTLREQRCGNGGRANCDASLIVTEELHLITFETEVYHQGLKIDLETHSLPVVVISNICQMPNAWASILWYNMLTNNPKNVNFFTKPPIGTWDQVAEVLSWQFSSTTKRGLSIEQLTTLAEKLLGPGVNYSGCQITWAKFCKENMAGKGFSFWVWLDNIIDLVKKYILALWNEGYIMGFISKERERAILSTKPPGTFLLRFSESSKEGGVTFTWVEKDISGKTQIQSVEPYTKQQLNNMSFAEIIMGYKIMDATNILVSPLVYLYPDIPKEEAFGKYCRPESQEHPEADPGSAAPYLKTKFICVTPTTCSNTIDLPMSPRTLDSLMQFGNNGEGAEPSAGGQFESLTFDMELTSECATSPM", "assay": "Inhibition of STAT3 in human A549 cells assessed as reduction in STAT3 phosphorylation incubated for 72 hrs by Western blot analysis", "type": "cell-based", "settings": "dose 3.75-15 µM"}, "A549 [18]": {"test_system": "A549", "assay": "Induction of cell cycle arrest in human A549 cells assessed as S phase at 7.5 uM incubated for 72 hrs by PI staining based flow cytometry analysis (reference value: 31.35 %)", "type": "functional"}, "A549 [19]": {"test_system": "A549", "assay": "Induction of apoptosis in human A549 cells assessed as necrotic cells at 3.75 uM incubated for 72 hrs by annexin V-FITC and PI staining based flow cytometry analysis (reference value: 1.27 %)", "type": "functional"}, "A549 [20]": {"test_system": "A549", "assay": "Induction of apoptosis in human A549 cells assessed as viable cells at 7.5 uM incubated for 72 hrs by annexin V-FITC and PI staining based flow cytometry analysis (reference value: 95.98 %)", "type": "functional", "settings": "read-out: Activity"}, "A549 [21]": {"test_system": "A549", "assay": "Induction of apoptosis in human A549 cells assessed as late apoptotic cells at 7.5 uM incubated for 72 hrs by annexin V-FITC and PI staining based flow cytometry analysis (reference value: 0.5 %)", "type": "functional"}, "A549 [22]": {"test_system": "A549", "assay": "Induction of cell cycle arrest in human A549 cells assessed as G0/G1 phase at 15 uM incubated for 72 hrs by PI staining based flow cytometry analysis (reference value: 53.87 %)", "type": "functional"}, "A549 [23]": {"test_system": "A549", "assay": "Antiproliferative activity against human A549 cells assessed as reduction in cell growth at 30 uM by CCK8 assay relative to control", "type": "functional"}, "A549 [24]": {"test_system": "A549", "assay": "Induction of cell cycle arrest in human A549 cells assessed as G0/G1 phase incubated for 72 hrs by PI staining based flow cytometry analysis", "type": "functional", "settings": "dose 3.75-15 µM"}, "A549 [25]": {"test_system": "A549", "assay": "Induction of apoptosis in human A549 cells assessed as late apoptotic cells incubated for 72 hrs by annexin V-FITC and PI staining based flow cytometry analysis", "type": "functional, cell-based", "settings": "dose 3.75-15 µM"}, "A549 [26]": {"test_system": "A549", "assay": "Induction of cell cycle arrest in human A549 cells assessed as G2/M phase at 15 uM incubated for 72 hrs by PI staining based flow cytometry analysis (reference value: 14.78 %)", "type": "functional"}, "A549 [27]": {"test_system": "A549", "assay": "Induction of apoptosis in human A549 cells assessed as late apoptotic cells at 3.75 uM incubated for 72 hrs by annexin V-FITC and PI staining based flow cytometry analysis (reference value: 0.5 %)", "type": "functional"}, "A549 [28]": {"test_system": "A549", "assay": "Effect on STAT3 expression in human A549 cells at 3.75 to 15 uM incubated for 72 hrs by Western blot analysis", "type": "functional, cell-based", "settings": "dose 3.75-15 µM"}},
  "note": "Calls of active or inactive are those of the source. The rule behind the calls is not given here.",
  "data": [
    {"smiles": "C[C@H](CC[C@@H](O)C(C)(C)O)[C@H]1CC[C@@]2(C)[C@@H]3CC=C4[C@@H](CC[C@H](O)C4(C)C)[C@]3(C)[C@H](OC(=O)Cn3cc(-c4cccc(Cl)c4)nn3)C[C@]12C", "values": [
      {"measurement": "inhibition at 30 µM", "setting": "NCI-H460", "result": 33.8, "unit": "%"},
      {"measurement": "Activity", "setting": "A549 [1]", "result": 11.5, "unit": "%"},
      {"measurement": "IC50", "setting": "A549 [2]", "result": 4.47, "unit": "µM"},
      {"measurement": "viability at 3.75 µM", "setting": "A549 [3]", "result": 94.9, "unit": "%"},
      {"measurement": "Activity", "setting": "A549 [4]", "result": 55.45, "unit": "%"},
      {"measurement": "Activity", "setting": "A549 [5]", "result": 2.28, "unit": "%"},
      {"measurement": "Activity", "setting": "A549 [6]", "result": 3.37, "unit": "%"},
      {"measurement": "Activity", "setting": "A549 [7]", "result": 1.53, "unit": "%"},
      {"measurement": "Activity", "setting": "A549 [8]", "result": 3.66, "unit": "%"},
      {"measurement": "Activity", "setting": "A549 [9]", "result": 30.62, "unit": "%"},
      {"measurement": "Activity", "setting": "A549 [10]", "result": 16.03, "unit": "%"},
      {"measurement": "Activity", "setting": "A549 [11]", "result": 4.8, "unit": "%"},
      {"measurement": "Activity", "setting": "A549 [12]", "result": 1.92, "unit": "%"},
      {"measurement": "Activity", "setting": "A549 [13]", "result": 60.04, "unit": "%"},
      {"measurement": "viability at 15 µM", "setting": "A549 [14]", "result": 91.7, "unit": "%"},
      {"measurement": "Activity", "setting": "A549 [15]", "result": 13.93, "unit": "%"},
      {"measurement": "Activity", "setting": "A549 [16]", "result": "Dose-Dependent Effect"},
      {"measurement": "inhibition", "setting": "[17]", "result": "Dose-Dependent Effect"},
      {"measurement": "Activity", "setting": "A549 [18]", "result": 28.46, "unit": "%"},
      {"measurement": "Activity", "setting": "A549 [19]", "result": 2.07, "unit": "%"},
      {"measurement": "viability at 7.5 µM", "setting": "A549 [20]", "result": 91.7, "unit": "%"},
      {"measurement": "Activity", "setting": "A549 [21]", "result": 1.27, "unit": "%"},
      {"measurement": "Activity", "setting": "A549 [22]", "result": 72.72, "unit": "%"},
      {"measurement": "inhibition at 30 µM", "setting": "A549 [23]", "result": 90.2, "unit": "%"},
      {"measurement": "Activity", "setting": "A549 [24]", "result": "Dose-Dependent Effect"},
      {"measurement": "Activity", "setting": "A549 [25]", "result": "Dose-Dependent Effect"},
      {"measurement": "Activity", "setting": "A549 [26]", "result": 11.25, "unit": "%"},
      {"measurement": "Activity", "setting": "A549 [27]", "result": 0.79, "unit": "%"},
      {"measurement": "inhibition", "setting": "A549 [28]", "result": "Active"}
    ]}
  ]
}
